Test results published in patent publication US6150366A, “Ziprasidone formulations” (Pfizer Inc., priority 1999, dated 2000).
Where a name gives a salt, the structure may show the parent alone.

Columns and labels:
[1] = Dissolution testing in USP-2 apparatus; type: physicochemical; conditions: aqueous media, at or below 85 μm
Procedure: Usually the test result is established as an average for a pre-determined number of dosages (e.g., capsules, tablets, suspensions, or other dosage form), usually six. The dissolution media is typically maintained at 37° C. during the test. […] The amount of dissolved ziprasidone can be determined conventionally by HPLC, as hereinafter described.
A dosage form can be tested to assess its dissolution profile by dissolution testing it in a USP-2 apparatus. As previously described, the apparatus is implemented to contain 900 ml of 0.05 M NaH2 PO4 buffer, pH 7.5, containing 2% (w/w) sodium dodecyl sulfate. 1% pancreatin may be added if the dosage form being tested is a capsule, as previously noted. The pH can be adjusted as approprate using, for example, 5N NaOH or concentrated phosphoric acid. The USP-2 apparatus is equipped with paddles stirring at 75 rpm. […]
The amount of dissolved ziprasidone can be determined conventionally by HPLC. […] Quantification can be effected facilely by comparison of HPLC peak height (or area) with the peak height (or area) taken from a standard plot of concentration vs. peak height (or area) for standards of known concentration. As is conventional, the ziprasidone standard concentrations are selected to fall within a linear range of concentration vs absorbance for the UV detector employed.

Solubility = type: physicochemical
[2] = cited from earlier work
[3] = cited from earlier work; remark: listed apart in the source

Row | solubility compared with the acid addition salt (Solubility; near-neutral pH) | solubility (Solubility; slurry in THF/water process) | Structure (SMILES) | dependence of dissolution rate on particle size [1] | aqueous solubility [2] | permeability [3]
1 | much less soluble | low solubility | O=C1Cc2cc(CCN3CCN(c4nsc5ccccc45)CC3)c(Cl)cc2N1 [ziprasidone] | does not vary substantially with particle size | – | –
2 | – | – | O=C1Cc2cc(CCN3CCN(c4nsc5ccccc45)CC3)c(Cl)cc2N1 [ziprasidone hydrochloride] | – | relatively poor aqueous solubility | high permeability
